Key:
Test in all cases: relative viability (nuclei count vs DMSO), 5 days (fraction); higher = more cells survive
Carboplatin + Trametinib = compound: C1CC(C1)(C(=O)O)C(=O)O.[NH2-].[NH2-].[Pt+2] [Carboplatin] + CC(=O)Nc1cccc(-n2c(=O)n(C3CC3)c(=O)c3c(Nc4ccc(I)cc4F)n(C)c(=O)c(C)c32)c1 [Trametinib] (partner 0.02 µM)
Method in brief: (§1)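 Cells from lung cancer lines were seeded into 1536-well plates and, one day later, dosed by pin tool. Treatments were either a single drug or a fixed dose of an anchor drug with five library-drug doses (not always all listed) in √10 steps. After 5 days, nuclei were stained in a one-step fixation (final 0.05% Triton X-100, 1% formaldehyde, 1 ug/ml Hoechst) and counted on 4× images, and relative viability is the treated-to-vehicle nuclei ratio, as the median of duplicate plates.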

Carboplatin + Pemetrexed = compound: C1CC(C1)(C(=O)O)C(=O)O.[NH2-].[NH2-].[Pt+2] [Carboplatin] + Nc1nc2[nH]cc(CCc3ccc(C(=O)N[C@@H](CCC(=O)O)C(=O)O)cc3)c2c(=O)[nH]1 [Pemetrexed] (partner 0.2 µM)
Method in brief: as §1

MLN4924 + Decitabine = compound: NS(=O)(=O)OC[C@@H]1C[C@@H](n2ccc3c(N[C@H]4CCc5ccccc54)ncnc32)C[C@@H]1O [MLN4924] + Nc1ncn([C@H]2C[C@H](O)[C@@H](CO)O2)c(=O)n1 [Decitabine] (partner 2 µM)
Method in brief: as §1

MLN4924 + Alpelisib = compound: NS(=O)(=O)OC[C@@H]1C[C@@H](n2ccc3c(N[C@H]4CCc5ccccc54)ncnc32)C[C@@H]1O [MLN4924] + Cc1nc(NC(=O)N2CCC[C@H]2C(N)=O)sc1-c1ccnc(C(C)(C)C(F)(F)F)c1 [Alpelisib] (partner 2 µM)
Method in brief: as §1

Row | Cell Line | relative viability (Carboplatin + Trametinib; first compound 0.08 µM) | relative viability (Carboplatin + Trametinib; first compound 0.253 µM) | relative viability (Carboplatin + Trametinib; first compound 0.8 µM) | relative viability (Carboplatin + Trametinib; first compound 2.53 µM) | relative viability (Carboplatin + Trametinib; first compound 8 µM) | relative viability (Carboplatin + Pemetrexed; first compound 0.08 µM) | relative viability (Carboplatin + Pemetrexed; first compound 0.253 µM) | relative viability (Carboplatin + Pemetrexed; first compound 0.8 µM) | relative viability (Carboplatin + Pemetrexed; first compound 2.53 µM) | relative viability (Carboplatin + Pemetrexed; first compound 8 µM) | relative viability (MLN4924 + Decitabine; first compound 0.04 µM) | relative viability (MLN4924 + Decitabine; first compound 0.1265 µM) | relative viability (MLN4924 + Decitabine; first compound 0.4 µM) | relative viability (MLN4924 + Decitabine; first compound 1.265 µM) | relative viability (MLN4924 + Decitabine; first compound 4 µM) | relative viability (MLN4924 + Alpelisib; first compound 0.04 µM) | relative viability (MLN4924 + Alpelisib; first compound 0.1265 µM) | relative viability (MLN4924 + Alpelisib; first compound 0.4 µM) | relative viability (MLN4924 + Alpelisib; first compound 1.265 µM) | relative viability (MLN4924 + Alpelisib; first compound 4 µM)
1 | NCI-H1648 | 0.527 | 0.567 | 0.45 | 0.382 | 0.473 | 0.747 | 0.737 | 0.733 | 0.587 | 0.65 | 0.572 | 0.507 | 0.398 | 0.305 | 0.336 |  |  |  |  | 
2 | ChaGo-K-1 | 0.857 | 0.917 | 0.831 | 0.717 | 0.546 | 0.262 | 0.261 | 0.253 | 0.249 | 0.269 | 0.409 | 0.276 | 0.297 | 0.2 | 0.184 |  |  |  |  | 
3 | Calu-6 |  |  |  |  |  |  |  |  |  |  |  |  |  |  |  | 1.09 | 1.07 | 0.388 | 0.14 | 0.148
4 | EBC-1 |  |  |  |  |  |  |  |  |  |  |  |  |  |  |  | 0.78 | 0.768 | 0.276 | 0.132 | 0.151
5 | IA-LM |  |  |  |  |  |  |  |  |  |  |  |  |  |  |  | 0.494 | 0.2 | 0.153 | 0.0773 | 0.0621
6 | NCI-H1563 |  |  |  |  |  | 0.941 | 0.751 | 0.73 | 0.755 | 0.791 |  |  |  |  |  | 1.36 | 1.31 | 0.898 | 0.564 | 0.566
7 | NCI-H2228 | 0.678 | 0.575 | 0.616 | 0.543 | 0.344 | 0.397 | 0.338 | 0.311 | 0.376 | 0.313 |  |  |  |  |  |  | 0.833 | 0.415 | 0.176 | 0.18
8 | NCI-H1299 |  |  |  |  |  |  |  |  |  |  |  |  |  |  |  | 1.03 | 1.07 | 0.71 | 0.333 | 0.263
9 | NCI-H2342 | 0.825 | 0.891 | 0.903 | 0.924 | 0.81 | 0.786 | 0.844 | 0.791 | 0.834 | 0.762 | 0.695 | 0.75 | 0.718 | 0.643 | 0.468 |  |  |  |  | 
10 | NCI-H727 | 0.391 | 0.4 | 0.349 | 0.376 | 0.392 |  |  |  |  |  | 0.783 | 0.823 | 0.546 | 0.493 | 0.502 | 0.474 | 0.292 | 0.245 | 0.194 | 0.213
11 | CAL-12T | 0.385 | 0.352 | 0.299 | 0.33 | 0.365 | 1.21 | 1.34 | 1.13 | 1.12 | 1.14 |  |  |  |  |  | 1.09 | 1.18 | 0.39 | 0.529 | 0.191
12 | ABC-1 |  |  |  |  |  |  |  |  |  |  | 1.12 | 1.33 | 0.929 | 0.28 | 0.402 | 1.18 | 0.95 | 0.352 | 0.264 | 0.262
13 | SW 900 | 0.794 | 0.904 | 1.07 | 0.7 | 0.759 | 0.495 | 0.468 | 0.488 | 0.525 | 0.496 |  | 0.427 | 0.344 | 0.27 | 0.211 |  |  |  |  | 
14 | A549 |  |  |  |  |  |  |  |  |  |  | 0.213 | 0.189 | 0.112 | 0.0579 | 0.0418 | 0.657 | 0.748 | 0.61 | 0.05 | 0.05

From the supplement of paper PMC10307832
